Results reported in US20150231236A1, “METHODS FOR TREATING PATIENTS WITH HYPERCHOLESTEROLEMIA THAT IS NOT ADEQUATELY CONTROLLED BY MODERATE-DOSE STATIN THERAPY” (Regeneron Pharmaceuticals, Inc., priority 2014, published 2015).

How the values were obtained:
[1] = system: patients with hypercholesterolemia at high CV risk not adequately controlled with atorvastatin (20 mg or 40 mg); experiment: Example 2: randomized, double-blind trial, lipid efficacy of mAb316P add-on to atorvastatin vs EZE add-on, atorvastatin dose doubling or switch to rosuvastatin; assay type: in vivo, human
Method: The present study was a randomized, double-blind, active-comparator, parallel-group study in patients at high CV risk with non-FH or heFH who are not adequately controlled with atorvastatin (20 mg or 40 mg) with or without other lipid-modifying therapy (LMT) (excluding EZE). The study design is illustrated in FIG. 1. Patients who entered the study were taking either atorvastatin 20 mg or atorvastatin 40 mg. The former patients were randomized to 1 of 3 treatment arms (arms 1 to 3); the latter patients were randomized to 1 of 4 treatment arms (arms 4 to 7). The treatment arms are as follows:
(1) mAb316P+atorvastatin 20 mg+placebo-EZE; (2) Placebo-mAb316P+atorvastatin 40 mg+placebo-EZE; and (3) Placebo-mAb316P+atorvastatin 20 mg+EZE 10 mg.
(4) mAb316P+atorvastatin 40 mg+placebo-EZE; (5) Placebo-mAb316P+atorvastatin 80 mg+placebo-EZE; (6). Placebo-mAb316P+rosuvastatin 40 mg+placebo-EZE; and (7) Placebo-mAb316P+atorvastatin 40 mg+EZE 10 mg.
(B) a double-blind treatment period of 24 weeks. Each patient received a SC injection Q2W (mAb316P or placebo-mAb316P) and was administered (or instructed to take) 2 oral blinded medications daily (a statin [atorvastatin or rosuvastatin] and EZE or placebo-EZE). The first injection of mAb316P or placebo-mAb316P was administered at the clinical site on day 1, after study assessments were completed, and as soon as possible after the patient was randomized into the study. The patient/caregiver administered subsequent injections outside of the clinic according to the dosing schedule. On days where the clinic study visit coincided with dosing, the dose of study drugs (injectable and oral) were administered after all study assessments had been performed and all laboratory samples collected. The last dose of mAb316P or placebo-mAb316P was administered at week 22. The last dose of daily oral study drugs was administered at week 24. At week 12, based on their baseline CV risk, certain patients randomized to mAb316P in a blinded manner, had their dose increased as follows:
Each patient received a subcutaneous (SC) injection once every two weeks (Q2W) (mAb316P or placebo-mAb316P) and took 2 oral blinded medications daily (a statin [atorvastatin or rosuvastatin] and EZE or placebo-EZE).
The injectable study treatment was a single SC injection of 1 mL for a 75 mg or 150 mg dose of mAb316P or placebo-mAb316P provided in an auto-injector, administered in the abdomen, thigh, or outer area of the upper arm. The first injection of study drug was administered at the clinical site, as soon as possible after the patient was randomized into the study. The patient was monitored at the clinical site for at least 30 minutes following the first injection. The patient/caregiver administered subsequent injections outside of the clinic, according to the dosing schedule. On days where the clinic study visit coincided with dosing, the dose of study drug was administered after all study assessments have been performed and all laboratory samples collected.
The dose of mAb316P was increased, in a blinded manner, from 75 mg to 150 mg SC Q2W, starting at week 12, based on baseline CV risk in the following circumstances:
The primary efficacy endpoint was the percent change in calculated LDL-C from baseline to week 24, which is defined as: 100× (calculated LDL-C value at week 24−calculated LDL-C value at baseline)/calculated LDL-C value at baseline. The baseline calculated LDL-C value was the last LDL-C level obtained before the first double-blind study drug injection. The calculated LDL-C at week 24 will be the LDL-C level obtained within the week 24 analysis window and during the main efficacy period. The main efficacy period was defined as the time from the first double-blind study drug injection up to 21 days after the last double-blind study drug injection or up to the upper limit of the week 24 analysis window, whichever comes first.
Total-C, HDL-C, TG, ApoB, ApoA-1, and Lp (a) were directly measured by a central laboratory. […]

[2] = system: patients with hypercholesterolemia at high CV risk not adequately controlled with rosuvastatin (10 mg or 20 mg); experiment: Example 3: safety, treatment-emergent adverse events in pooled treatment groups; settings: Safety Population; pooled treatment groups

With `CC(C)c1nc(N(C)S(C)(=O)=O)nc(-c2ccc(F)cc2)c1/C=C/[C@@H](O)C[C@@H](O)CC(=O)O` [rosuvastatin, reference compound] the “LDL-C W24 % change from baseline, LS mean (SE)” value ([1]; ITT population, week 24, treatment arm as labelled) was −21.4%, the “Calculated LDL-C LS mean (SE), % Change from Baseline” value ([1]; Week 4) was −22.4 (2.8) % and the “Calculated LDL-C LS mean (SE), Change from Baseline” value ([1]; Week 4) was −25.2 (3.0). The “Calculated LDL-C LS mean (SE), Value (mg/dL)” value ([1]; Week 4) was 83.5 (3.0) mg/dL, the “Calculated LDL-C LS mean (SE), % Change from Baseline” value ([1]; Week 8) was −21.0 (3.2) % and the “Calculated LDL-C LS mean (SE), Change from Baseline” value ([1]; Week 8) was −22.9 (3.3). For the same compound, the “Calculated LDL-C LS mean (SE), Value (mg/dL)” value ([1]; Week 8) was 85.8 (3.3) mg/dL, the “Calculated LDL-C LS mean (SE), % Change from Baseline” value ([1]; Week 12) was −23.3 (3.2) % and the “Calculated LDL-C LS mean (SE), Change from Baseline” value ([1]; Week 12) was −26.3 (3.5). For the same compound, the “Calculated LDL-C LS mean (SE), Value (mg/dL)” value ([1]; Week 12) was 82.4 (3.5) mg/dL, the “Calculated LDL-C LS mean (SE), % Change from Baseline” value ([1]; Week 16) was −15.7 (3.5) % and the “Calculated LDL-C LS mean (SE), Change from Baseline” value ([1]; Week 16) was −18.7 (3.8). For the same compound, the “Calculated LDL-C LS mean (SE), Value (mg/dL)” value ([1]; Week 16) was 90.0 (3.8) mg/dL, the “Calculated LDL-C LS mean (SE), % Change from Baseline” value ([1]; Week 24) was −21.4 (4.2) % and the “Calculated LDL-C LS mean (SE), Change from Baseline” value ([1]; Week 24) was −23.1 (4.5). The “Calculated LDL-C LS mean (SE), Value (mg/dL)” value ([1]; Week 24) was 85.6 (4.5) mg/dL, the “patients achieving the more stringent LDL-C goal of <70 mg/dL” value ([1]; Week 24, calculated LDL-C, across atorvastatin 20 mg and 40 mg regimens) was 42.2% and the “reduced LDL-C levels by” value ([1]; atorvastatin 40 mg regimen, week 24, add-on mAb316P, add-on ezetimibe, doubling of atorvastatin dose or switch to rosuvastatin 40 mg) was 21.4%. For the same compound, the “Proportion of Patients Reaching LDL-C goal (%)” value ([1]; week 24, calculated LDL-C <70 mg/dL very high risk or <100 mg/dL high risk, combined estimate) was 62.2%, the “General Allergic TEAEs” value [2] was 7 (6.9%) patients (%) and the “SOC General disorders and administration site conditions” value [2] was 10 (9.9%) patients (%). The “SOC Psychiatric disorders” value [2] was 3 (3.0%) patients (%), the “SOC Respiratory, thoracic and mediastinal disorders” value [2] was 5 (5.0%) patients (%) and the “SOC Skin and subcutaneous tissue disorders” value [2] was 6 (5.9%) patients (%). The TEAEs [2] was 68 (67.3%) patients (%), the “Treatment-emergent SAEs” value [2] was 8 (7.9%) patients (%) and the “Treatment-emergent cardiovascular events adjudicated positively” value [2] was 1 (1.0%) patients (%). For the same compound, the Treatment-emergent neurocognitive disorders [2] was 2 (2.0%) patients (%), the Treatment-emergent neurologic disorders [2] was 2 (2.0%) patients (%) and the cough [2] was 3 (3.0%) patients (%). The “discontinued study treatment early due to a treatment emergent adverse event” value [2] was 5 (5.0%) patients (%) and the “injection site reactions (ISRs)” value [2] was 2 (2.0%) patients (%).
